In general, IC50 refers to the concentration at which inhibition is half-maximal. Lower therefore signals inhibition by little substance.

The test concerns Type IV PDE. Description: PDE inhibitory activity, type IV isozyme (3H-cAMP hydrolysis). The class given is biochemical. Particulars: partially purified from rat neutrophils, 30° C., 30 minutes. The procedure: Type I, III, IV, and V PDE isozymes were prepared to study the PDE inhibitory activities and selectivities with the compound of the invention [Trends Pharmacol. Sci., 12, 19-27 (1992)]. Type I PDE was purchased from Sigma Corp. Type III, IV, and V PDE isozymes were partially purified from rats platelets (Type III and V) or neutrophils (Type IV). Each enzyme source was homogenized in a buffer (pH 6.5) containing 20 mM bisTris, 2 mM EDTA (ethylenediamine tetraacetate), 0.1 mM PMSF (phenylmethylsulfonyl fluoride), 5 mM 2-mercaptoethanol, 0.001 mM pepstatin, and 0.01 mM leupeptin and was centrifuged at 30,000×G for 30 minutes to obtain a supernatant, which was applied to an ion exchange column (Q-sepharose First Flow, Pharmacia Corp.) and was eluted with 0 to 1M sodium acetate. Partially purified isozymes were identified by observing the effects of conventional inhibitors.
Each PDE isozyme and the test compound dissolved in DMSO (dimethyl sulfoxide) were added to 50 mM Tris-HCl buffer containing 5 mM magnesium chloride. ^3 H-cAMP (for type III and IV PDE) or ^3 H-cGMP (for type I and V PDE) were added as substrates and were reacted at 30° C. for 30 minutes. The reaction was terminated by placing the test tube in boiling water of 100° C. for 5 minutes. The nucleotides formed by PDE were broken down by 5'-nucleotidase to ^3 H-adenosine or ^3 H-guanosine. The unreacted substrate and reaction product were separated through an ion-exchange column (QAE sephadex, Pharmacia Corp.) The eluted ^3 H-nucleoside was measured for its radioactivity by a liquid scintillation counter. The inhibiting activities of the compound of the present invention are shown by the IC50 value (M). Further, the inhibitory activities of the test samples against Type I, III, and V are 1/10 or less than that against type IV.
`COc1ccc(C2CCNC(=O)O2)cc1O[C@H]1CC[C@H](c2ccccc2)CC1` (relative stereo) [Compound No. 78, 6-[4-methoxy-3-(trans-4-phenylcyclohexyloxy)phenyl]-3,4,5,6-tetrahydro-2H-1,3-oxazin-2-one] showed a half-inhibitory concentration (IC50) of 1900 nM.
The figure for `COc1ccc(C2CCN(C)C(=O)O2)cc1O[C@H]1CC[C@H](c2ccccc2)CC1` (relative stereo) [Compound No. 79, 6-[4-methoxy-3-(trans-4-phenylcyclohexyloxy)phenyl]-3-methyl-3,4,5,6-tetrahydro-2H-1,3-oxazin-2-one] is 1200 nM; for `COc1ccc([C@H]2OC(=O)NC[C@H]2c2ccccc2)cc1OC1CCCC1` (relative stereo) [Compound No. 91, rel-(5R,6S)-6-(3-cyclopentyloxy-4-methoxyphenyl)-5-phenyl-3,4,5,6-tetrahydro-2H-1,3-oxazin-2-one] it is 2700 nM; for `COc1ccc([C@@H]2OC(=O)NC[C@H]2c2ccccc2)cc1OC1CCCC1` (relative stereo) [Compound No. 92, rel-(5R,6R)-6-(3-cyclopentyloxy-4-methoxyphenyl)-5-phenyl-3,4,5,6-tetrahydro-2H-1,3-oxazin-2-one] it is 900 nM.
The figure for `CCCCOc1cc(C2CCNC(=O)O2)ccc1OC` (stereo not drawn) [Compound No. 3, 6-(3-butoxy-4-methoxyphenyl)-3,4,5,6-tetrahydro-2H-1,3-oxazin-2-one] is 6800 nM.
As for `COc1ccc(C2(c3ccccc3)CCNC(=O)O2)cc1OC1CCCC1` (stereo not drawn) [Compound No. 7, 6-(3-cyclopentyloxy-4-methoxyphenyl)-6-phenyl-3,4,5,6-tetrahydro-2H-1,3-oxazin-2-one], the figure is 4300 nM; as for `COc1ccc(C2CCN(Cc3ccc4ccccc4n3)C(=O)O2)cc1OC1CCCC1` (stereo not drawn) [Compound No. 12, 6-(3-cyclopentyloxy-4-methoxyphenyl)-3-(2-quinolylmethyl)-3,4,5 6-tetrahydro-2H-1,3-oxazin-2-one], 73 nM.
In the case of `COc1ccc(C2CCN(Cc3cccc4ccccc34)C(=O)O2)cc1OC1CCCC1` (stereo not drawn) [Compound No. 13, 6-(3-cyclopentyloxy-4-methoxyphenyl)-3-(1-naphthylmethyl)-3,4,5,6-tetrahydro-2H-1 3-oxazin-2-one], 1700 nM corresponded to half-maximal inhibition (IC50).
In the case of `COc1ccc(C2CCN(Cc3ccc4ccccc4c3)C(=O)O2)cc1OC1CCCC1` (stereo not drawn) [Compound No. 15, 6-(3-cyclopentyloxy-4-methoxyphenyl)-3-(2-naphthylmethyl)-3,4,5,6-tetrahydro-2H-1,3-oxazin-2-one], the half-inhibitory concentration (IC50) amounted to 980 nM.
The figure for `CCCCN1CCC(c2ccc(OC)c(OC3CCCC3)c2)OC1=O` (stereo not drawn) [Compound No. 17, 3-butyl-6-(3-cyclopentyloxy-4-methoxyphenyl)-3,4,5,6-tetrahydro-2H-1,3-oxazin-2-one] is 2100 nM; for `COc1ccc(C2CCN(C(=O)c3ccccc3)C(=O)O2)cc1OC1CCCC1` (stereo not drawn) [Compound No. 18, 3-benzoyl-6-(3-cyclopentyloxy-4-methoxyphenyl)-3,4,5,6-tetrahydro-2H-1,3-oxazin-2-one] it is 410 nM.
As for `CCOC(=O)CN1CCC(c2ccc(OC)c(OC3CCCC3)c2)OC1=O` (stereo not drawn) [Compound No. 19, 6-(3-cyclopentyloxy-4-methoxyphenyl)-3-(ethoxycarbonylmethyl)-3,4,5,6-tetrahydro-2H-1,3-oxazin-2-one], the figure is 1800 nM; as for `COc1ccc(C2(C)CCN(Cc3ccncc3)C(=O)O2)cc1OC1CCCC1` (stereo not drawn) [Compound No. 22, 6-(3-cyclopentyloxy-4-methoxyphenyl)-6-methyl-3-(4-pyridylmethyl)-3,4,5,6-tetrahydro-2H-1,3-oxazin-2-one], 5900 nM.
The figure for `COc1ccc(C2(c3nccs3)CCNC(=O)O2)cc1OC` (stereo not drawn) [Compound No. 27, 6-(3,4-dimethoxyphenyl)-6-(2-thiazolyl)-3,4,5,6-tetrahydro-2H-1,3-oxazin-2-one] is 21000 nM.
`COc1ccc(C2(c3cccs3)CCNC(=O)O2)cc1OC1CCCC1` (stereo not drawn) [Compound No. 29, 6-(3-cyclopentyloxy-4-methoxyphenyl)-6-(2-thienyl)-3,4,5,6-tetrahydro-2H-1,3-oxazin-2-one] yielded an IC50 of 3400 nM.
The figure for `CCCCC1(c2ccc(OC)c(OC3CCCC3)c2)CCNC(=O)O1` (stereo not drawn) [Compound No. 30, 6-butyl-6-(3-cyclopentyloxy-4-methoxyphenyl)-3,4,5,6-tetrahydro-2H-1,3-oxazin-2-one] is 9000 nM; for `COc1ccc(C2(c3nccs3)CCNC(=O)O2)cc1OC1CCCC1` (stereo not drawn) [Compound No. 31, 6-(3-cyclopentyloxy-4-methoxyphenyl)-6-(2-thiazolyl)-3,4,5,6-tetrahydro-2H-1,3-oxazin-2-one] it is 4600 nM; for `COc1ccc(C2CCN(CCN3CCCCC3)C(=O)O2)cc1OC1CCCC1` (stereo not drawn) [Compound No. 32, 6-(3-cyclopentyloxy-4-methoxyphenyl) -3-[2-(1-piperidyl)ethyl]-3,4,5,6-tetrahydro-2H-1,3-oxazin-2-one] it is 32000 nM.
In turn, `COc1ccc(C2CCN(CCN3CCOCC3)C(=O)O2)cc1OC1CCCC1` (stereo not drawn) [Compound No. 33, 6-(3-cyclopentyloxy-4-methoxyphenyl)-3-[2-(4-morpholino)ethyl]-3,4,5,6-tetrahydro-2H-1,3-oxazin-2-one] yielded an IC50 of 8800 nM.
The figure for `COc1ccc(C2CCN(Cc3c(C)c4ccccc4n3C(C)=O)C(=O)O2)cc1OC1CCCC1` (stereo not drawn) [Compound No. 34, 3-(1-acetyl-3-methyl-2-indolylmethyl)-6-(3-cyclopentyloxy-4-methoxyphenyl)-3,4,5,6-tetrahydro-2H-1,3-oxazin-2-one] is 860 nM; for `COc1ccc(C2CCN(Cc3ccco3)C(=O)O2)cc1OC1CCCC1` (stereo not drawn) [Compound No. 35, 6-(3-cyclopentyloxy-4-methoxyphenyl)-3-(2-furylmethyl)-3,4,5,6-tetrahydro-2H-1,3-oxazin-2-one] it is 2000 nM.
As for `COc1ccc(C2(c3cccnc3)CCNC(=O)O2)cc1OC1CCCC1` (stereo not drawn) [Compound No. 36, 6-(3-cyclopentyloxy-4-methoxyphenyl)-6-(3-pyridyl)-3,4,5,6-tetrahydro-2H-1,3-oxazin-2-one], the figure is 1600 nM.
The compound `COc1ccc(C2CCN(Cc3cnccn3)C(=O)O2)cc1OC1CCCC1` (stereo not drawn) [Compound No. 37, 6-(3-cyclopentyloxy-4-methoxyphenyl) -3-(2-pyrazinylmethyl)-3,4,5,6-tetrahydro-2H-1,3-oxazin-2-one] yielded an IC50 of 4500 nM.
As for `COc1ccc(C2CCN(Cc3cccs3)C(=O)O2)cc1OC1CCCC1` (stereo not drawn) [Compound No. 38, 6-(3-cyclopentyloxy-4-methoxyphenyl)-3-(2-thienylmethyl)-3,4.56-tetrahydro-2H-1,3-oxazin-2-one], the figure is 2200 nM; as for `COc1ccc(C2(c3ccccn3)CCNC(=O)O2)cc1OC1CCCC1` (stereo not drawn) [Compound No. 39, 6-(3-cyclopentyloxy-4-methoxyphenyl)-6-(2-pyridyl)-3,4,5,6-tetrahydro-2H-1,3-oxazin-2-one], 18000 nM.
As for `COc1ccc(C2CCNC(=O)O2)cc1OCCCCCc1ccccc1` (stereo not drawn) [Compound No. 41, 6-[4-methoxy-3-(5-phenylpentyloxy)phenyl]-3,4,5,6-tetrahydro-2H-1,3-oxazin-2-one], the figure is 730 nM.
With `COc1ccc(C2CCN(C)C(=O)O2)cc1OCCCCCc1ccccc1` (stereo not drawn) [Compound No. 42, 6-[4-methoxy-3-(5-phenylpentyloxy)phenyl]-3-methyl-3,4,5,6-tetrahydro-2H-1,3-oxazin-2-one], half-maximal inhibition (IC50) required 1000 nM.
As for `COc1ccc(C2CCN(C)C(=O)O2)cc1OCCc1ccccc1` (stereo not drawn) [Compound No. 44, 6-(4-methoxy-3-phenethyloxyphenyl)-3-methyl-3,4,5,6-tetrahydro-2H-1,3-oxazin-2-one], the figure is 1500 nM; as for `COc1ccc(C2(C)CCNC(=O)O2)cc1OCCCCCc1ccccc1` (stereo not drawn) [Compound No. 45, 6-[4-methoxy-3-(5-phenylpentyloxy)phenyl]-6-methyl-3,4,5,6-tetrahydro-2H-1,3-oxazin-2-one], 260 nM; as for `COc1ccc(C2(C)CCN(C)C(=O)O2)cc1OCCCCCc1ccccc1` (stereo not drawn) [Compound No. 47, 3,6-dimethyl-6-[4-methoxy-3-(5-phenylpentyloxy)phenyl]-3,4,5,6-tetrahydro-2H-1,3-oxazin-2-one], 220 nM.
The figure for `COc1ccc(C2(C)CCN(C)C(=O)O2)cc1OCCc1ccccc1` (stereo not drawn) [Compound No. 48, 3. 6-dimethyl-6-(4-methoxy-3-phenethyloxyphenyl)-3,4,5,6-tetrahydro-2H-1,3-oxazin-2-one] is 700 nM; for `CCCCOc1cc(C2(C)CCNC(=O)O2)ccc1OC` (stereo not drawn) [Compound No. 52, 6-(3-butoxy-4-methoxyphenyl)-6-methyl-3,4,5,6-tetrahydro-2H-1,3-oxazin-2-one] it is 1400 nM; for `CCCCOc1cc(C2CCN(C)C(=O)O2)ccc1OC` (stereo not drawn) [Compound No. 53, 6-(3-butoxy-4-methoxyphenyl)-3-methyl-3,4,5,6-tetrahydro-2H-1,3-oxazin-2-one] it is 9100 nM.
